From PubChem BioAssay (NCI)
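Cultured in 96-well plates, cells were exposed to test compound for 48 hours across five concentrations. TGI: total growth inhibition.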

Key:
Assay in all cases: NCI-60 cell line screen, 48 h
SF-268 CNS = tested on: SF-268 CNS
OVCAR-3 ovarian = tested on: OVCAR-3 ovarian
NCI-H226 lung = tested on: NCI-H226 lung
CCRF-CEM leukemia = tested on: CCRF-CEM leukemia
SK-MEL-2 melanoma = tested on: SK-MEL-2 melanoma
OVCAR-4 ovarian = tested on: OVCAR-4 ovarian
RXF 393 renal = tested on: RXF 393 renal
A549 NSCLC = tested on: A549 NSCLC
TK-10 renal = tested on: TK-10 renal
NCI-H522 lung = tested on: NCI-H522 lung
MCF7 breast = tested on: MCF7 breast
T-47D breast = tested on: T-47D breast
MDA-N = tested on: MDA-N

| Compound | TGI (SF-268 CNS) [µM] | TGI (OVCAR-3 ovarian) [µM] | TGI (NCI-H226 lung) [µM] | TGI (CCRF-CEM leukemia) [µM] | TGI (SK-MEL-2 melanoma) [µM] | TGI (OVCAR-4 ovarian) [µM] | TGI (RXF 393 renal) [µM] | TGI (A549 NSCLC) [µM] | TGI (TK-10 renal) [µM] | TGI (NCI-H522 lung) [µM] | TGI (MCF7 breast) [µM] | TGI (T-47D breast) [µM] | TGI (MDA-N) [µM] |
| --- | --- | --- | --- | --- | --- | --- | --- | --- | --- | --- | --- | --- | --- |
| COc1ccc(/C=C2\CCC(CCN3CCOCC3)C2=O)cc1 (stereo unspecified) | > 100 | > 100 | > 100 | > 100 | > 100 | > 100 | > 100 | > 100 | > 100 |  |  |  |  |
| CCCC(=O)OC[n+]1ccc(-c2c(COC(=O)NC(C)C)c(COC(=O)NC(C)C)c3n2CCC3)cc1 | > 100 | > 100 | > 100 | > 100 | > 100 | > 100 | > 100 | > 100 | > 100 | > 100 | > 100 | > 100 |  |
| COC(=O)C(=O)C(/C(=N/N)C(=O)Nc1ccccc1C(N)=O)c1nc2ccc([N+](=O)[O-])cc2[nH]c1=O (stereo unspecified) | > 100 | > 100 | > 100 | > 100 | > 100 | > 100 |  | > 100 | > 100 | > 100 |  |  |  |
| CN(C)C(=NC#N)N(Cc1ccccc1)Cc1ccccc1 | > 100 | > 100 | > 100 | > 100 | > 100 | > 100 | > 100 | > 100 | > 100 | 81.5 |  |  |  |
| O=C(O)CCN(CCCN(CCC(=O)O)CCC(=O)O)CCC(=O)O | > 100 | > 100 |  | > 100 | > 100 | > 100 |  | > 100 | > 100 | > 100 |  |  |  |
| CCCCCCCCCCOC(=O)NCCC | > 100 | > 100 |  | 48.4 | 41 | > 100 | 39.9 | > 100 | > 100 | 50.4 |  |  |  |
| CCOC(=O)C1SC(=Nc2ccc(Cl)cc2Cl)N=C1C (stereo unspecified) | > 100 | > 100 | > 100 |  | > 100 | 70.1 | > 100 | > 100 | > 100 | > 100 |  |  |  |
| CN(/N=C\c1ccnc2ccccc12)c1ccccc1 | > 100 | 44.2 |  | 45.1 | 38.5 | 89.4 | 77.3 | 53.1 | 98.7 | 41.9 |  |  |  |
| Cc1cc(S(=O)(=O)NC(=NCCc2ccccc2)NN)c(S)cc1Cl | 79.7 | 74.8 | 66.3 | 90.1 | > 100 | > 100 | 64.7 | > 100 | > 100 | > 100 | > 100 | 63 |  |
| O=C1C(c2ccccc2)=C(c2ccccc2)C(c2ccc(Sc3ccc(C4=C(c5ccccc5)C(=O)C(c5ccccc5)=C4c4ccccc4)cc3)cc2)=C1c1ccccc1 | > 100 | > 100 | > 100 | > 100 | > 100 | > 100 | > 100 | > 100 | > 100 | > 100 |  |  |  |
| O=C(Cc1nc2ccc([N+](=O)[O-])cc2[nH]c1=O)C(=O)Nc1ccccc1[N+](=O)[O-] | > 100 | > 100 | > 100 | > 100 | > 100 | > 100 | > 100 | > 100 | > 100 | > 100 |  |  |  |
| C/C(=N/O)c1sc(-c2nc(C)c(/C(C)=N\O)s2)nc1C | > 100 | > 100 | > 100 | > 100 |  | > 100 | > 100 | > 100 |  |  |  |  |  |
| c1ccc2c(CNCCCCCCCCNCc3cccc4ccccc34)cccc2c1 | 21.4 | 22.5 | 24.5 | 5.21 | 3.03 | 5.28 | 3.13 | 5.41 | 5.53 | 3.24 |  |  |  |
| CC1=CC(=O)N(n2c(-c3ccccc3)n[nH]c2=O)C1=O | > 100 | > 100 | > 100 | > 100 | > 100 | > 100 | > 100 | > 100 | > 100 | > 100 | > 100 | > 100 |  |
| CC(C)(C)[Si](C)(C)OCC1OC(n2ccc(=O)[nH]c2=O)C(O[Si](C)(C)C(C)(C)C)[C@]12O[C@@H]2CO (stereo partly specified) | 42.5 | 28.4 | 30.7 |  | 28.6 | 47.4 |  | 26.6 | 31 | 29.7 | 38.2 |  | 59 |
